These results are taken from patent US9403832B2, “Pyrazolo[1,5-a]pyrimidine-based compounds, compositions comprising them, and methods of their use” (Lexicon Pharmaceuticals, Inc., priority 2012, dated 2016).

The target of data set [1] is T1, AAK1 (Homo sapiens, UniProt Q2M2I8).
T1 construct: NP_055726.2
The data set is described as follows: HEK281 cell-based assay (CBA). The conditions noted are these: HEK293F cells transfected with full length human AAK1 and AP2M1; phospho-mu2 Western blot; 3 hours incubation. The procedure, abridged: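 HEK293F cells co-transfected with full-length human AAK1/HA and Flag-AP2M1 (mu2), then treated in suspension with compounds (5 concentrations, 3-fold steps) in DMEM+0.5% FBS for 3 hours at 37° C. Phospho-mu2 and total mu2 (anti-Flag) assessed by Western blot.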
On the technique in general: In western blotting, separated proteins are transferred to a membrane and probed.

Data set [2] deals with T1, AAK1. The data set is described as follows: P81 filter plate assay. In kind it is biochemical. The conditions noted are these: full-length human AAK1, Mu2 substrate, 33P-ATP. In short, it runs like this: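 Full-length human AAK1 (0.2 nM, 2×) was pre-incubated 10 min at RT with compounds (top concentration 96 μM in the dilution plate), then reacted 1 h at RT with full-length human Mu2 (0.2 μM, 2×), cold ATP (2 μM, 2×) and ³³P-ATP. Reactions were stopped with phosphoric acid and captured on P81 filters for scintillation counting.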

T1 sequence (Q2M2I8 1-863 isoform Q2M2I8-2): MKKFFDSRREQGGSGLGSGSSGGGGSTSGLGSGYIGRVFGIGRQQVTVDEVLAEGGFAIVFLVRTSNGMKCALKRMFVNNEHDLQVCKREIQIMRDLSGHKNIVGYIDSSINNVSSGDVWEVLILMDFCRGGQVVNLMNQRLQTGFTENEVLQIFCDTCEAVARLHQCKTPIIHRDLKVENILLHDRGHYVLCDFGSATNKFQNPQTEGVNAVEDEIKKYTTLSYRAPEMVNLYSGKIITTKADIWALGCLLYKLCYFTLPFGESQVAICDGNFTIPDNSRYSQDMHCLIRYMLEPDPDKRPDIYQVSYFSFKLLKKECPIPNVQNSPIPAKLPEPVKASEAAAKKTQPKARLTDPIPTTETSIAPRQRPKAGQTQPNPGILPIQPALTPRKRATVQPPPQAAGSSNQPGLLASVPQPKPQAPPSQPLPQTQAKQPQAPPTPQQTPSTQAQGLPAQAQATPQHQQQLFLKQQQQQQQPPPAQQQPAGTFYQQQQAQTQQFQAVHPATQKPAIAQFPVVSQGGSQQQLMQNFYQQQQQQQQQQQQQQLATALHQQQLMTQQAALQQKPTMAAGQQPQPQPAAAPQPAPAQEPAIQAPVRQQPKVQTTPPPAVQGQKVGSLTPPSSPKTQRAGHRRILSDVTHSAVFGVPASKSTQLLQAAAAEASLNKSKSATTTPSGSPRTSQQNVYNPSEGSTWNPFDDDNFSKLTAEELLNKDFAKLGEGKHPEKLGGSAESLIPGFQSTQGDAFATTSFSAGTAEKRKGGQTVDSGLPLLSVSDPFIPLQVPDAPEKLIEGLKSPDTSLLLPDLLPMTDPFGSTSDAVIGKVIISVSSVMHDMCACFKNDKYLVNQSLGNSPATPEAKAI

With `CN(CCNc1ccn2ncc(-c3cccs3)c2n1)C(=O)OC(C)(C)C` [Example 5.6.4, Methyl-[2-(3-thiophen-2-yl-pyrazolo[1,5-a]pyrimidin-5-ylamino)-ethyl]-carbamic acid tert-butyl ester], the melting point (commonly the temperature, or range, at which the solid turns liquid) was 140 to 141 °C.

For `COc1ccc(F)cc1-c1cnn2ccc(N3CCN(C(=O)OC(C)(C)C)CC3)nc12` [tert-butyl 4-(3-(5-fluoro-2-methoxyphenyl)pyrazolo[1,5-a]pyrimidin-5-yl)piperazine-1-carboxylate], the IC50 in data set [1] and in data set [2] was ≤ 10 nM in each case. With `CN[C@H](C(=O)N1CCN(c2ccn3ncc(-c4cccnc4OC)c3n2)CC1)C(C)(C)C` [(S)-1-(4-(3-(2-methoxypyridin-3-yl)pyrazolo[1,5-a]pyrimidin-5-yl)piperazin-1-yl)-3,3-dimethyl-2-(methylamino)butan-1-one], the half-inhibitory concentration (IC50) – broadly, the concentration needed to halve the response being measured – was ≤ 100 nM in data set [1] and ≤ 10 nM in data set [2]. For `[2H]C([2H])([2H])Oc1ncccc1-c1cnn2ccc(N3CCN(C(=O)OC(C)(C)C)CC3)nc12` [tert-butyl 4-(3-(2-d3-methoxypyridin-3-yl)pyrazolo[1,5-a]pyrimidin-5-yl)piperazine-1-carboxylate] the same measures were ≤ 10 nM and ≤ 10 nM. For `COc1ncccc1-c1cnn2ccc(N3CCN(C(=O)OC4COC4)CC3)nc12` [oxetan-3-yl 4-(3-(2-methoxypyridin-3-yl)pyrazolo[1,5-a]pyrimidin-5-yl)piperazine-1-carboxylate] the same measures were ≤ 10 nM and ≤ 10 nM.

Regarding `COc1nc(C)ccc1-c1cnn2ccc(N3CCN(C(=O)OC(C)(C)C)CC3)nc12` [tert-butyl 4-(3-(2-methoxy-6-methylpyridin-3-yl)pyrazolo[1,5-a]pyrimidin-5-yl)piperazine-1-carboxylate], the IC50 in data set [1] and in data set [2] was ≤ 10 nM in each case. For `CCOC(=O)N1CCN(c2ccn3ncc(-c4cc(F)cnc4OC)c3n2)CC1` [ethyl 4-(3-(5-fluoro-2-methoxypyridin-3-yl)pyrazolo[1,5-a]pyrimidin-5-yl)piperazine-1-carboxylate], the half-maximal inhibitory concentration (IC50) in data set [1] was ≤ 100 nM; in data set [2], ≤ 10 nM. For `COc1ncccc1-c1cnn2ccc(N3CCN(C(=O)C4(N)CCOC4)CC3)nc12` (centres unmarked) [(3-aminotetrahydrofuran-3-yl)(4-(3-(2-methoxypyridin-3-yl)pyrazolo[1,5-a]pyrimidin-5-yl)piperazin-1-yl)methanone] the same measures were ≤ 100 nM and ≤ 10 nM.

As for `COc1cccc(-c2cnn3ccc(NC[C@@H]4CCCN4C(=O)OC(C)(C)C)nc23)c1` [(S)-tert-butyl 2-(((3-(3-methoxyphenyl)pyrazolo[1,5-a]pyrimidin-5-yl)amino)methyl)pyrrolidine-1-carboxylate], the half-maximal inhibitory concentration (IC50) in data set [1] and in data set [2] was ≤ 10 nM throughout. Regarding `CCCOC(=O)N1CCN(c2ccn3ncc(-c4ccc(C)nc4OC)c3n2)CC1` [propyl 4-(3-(2-methoxy-6-methylpyridin-3-yl)pyrazolo[1,5-a]pyrimidin-5-yl)piperazine-1-carboxylate], the half-maximal inhibitory concentration (IC50) in data set [1] and in data set [2] was ≤ 10 nM throughout. As to `COc1ccncc1-c1cnn2ccc(NC[C@@H]3CCCN3C(=O)OC(C)(C)C)nc12` [(S)-tert-butyl 2-(((3-(4-methoxypyridin-3-yl)pyrazolo[1,5-a]pyrimidin-5-yl)amino)methyl)pyrrolidine-1-carboxylate], the IC50 in data set [1] and in data set [2] was ≤ 10 nM each time. With `COc1ncccc1-c1cnn2ccc(N3CCN(C(=O)O[C@@H]4CCOC4)CC3)nc12` [(R)-tetrahydrofuran-3-yl 4-(3-(2-methoxypyridin-3-yl)pyrazolo[1,5-a]pyrimidin-5-yl)piperazine-1-carboxylate], the concentration for half-maximal inhibition (IC50) in data set [1] and in data set [2] was ≤ 10 nM in each case.
